Test results: publication PMC7497626, “Ruthenium-Mediated ^18F-Fluorination and Preclinical Evaluation of a New CB1 Receptor Imaging Agent [^18F]FPATPP” (ACS Chemical Neuroscience, 2020)
Where two headings read alike, the source gives them in different places. Each block holds one compound with its values, some of them ahead of it.

Columns and labels:
[1] = Stability / shelf life of the formulated tracer towards radiolysis; assay type: physicochemical; settings: studied up to 5 h after the EOS, n = 2
Method: For tracer production for preclinical evaluation, larger amounts of initial [^18F]fluoride were used and full purification and formulation processes were performed. For the radiofluorination, the SPE method with a 30 min reaction at 160 °C was utilized (conditions as in bar 2, Figure 2B). Elution efficiency was 93 ± 2% (n = 5). Total RCY was 16.7 ± 5.7% (decay-corrected to end of bombardment, d.c. to EOB, n = 5), molar activity (Am) > 95 GBq/μmol (d.c. to end of synthesis, EOS, n = 1) and radiochemical purity (RCP) 99.9 ± 0.1% at EOS (n = 5). Activity yield was 1.0 ± 0.4 GBq (n = 5) at EOS. Synthesis time was 87 ± 5 min (n = 5). The amount of ruthenium in the formulated product was 7.8 ± 1.8 μg/mL.
For PET tracers for clinical use, a generally acknowledged limit for RCP is 95%. […] Lahdenpohja et al. reported that the RCP of [^18F]FMPEP-d2 at EOS varied between 95.5–100% and was a function of radioactivity concentration, which was 20–200 MBq/mL (n > 150) in a 10% ethanolic solution, and the RCP was declined as a function of time due to radiolytic decomposition.[32] The shelf life of the [^18F]FMPEP-d2 was determined to be 120 min.[32] For [^18F]4 formulated in a similar ethanolic solution, the RCP at EOS was 99.9% when the RAC was 200–450 MBq/mL and the shelf life was determined to be at least 300 min, with no significant development of radioactive impurities. […]

[2] = biological target: T1, mouse cerebral CB1Rs (Mus musculus, UniProt P47746); assay: In vivo dynamic PET/CT imaging with [^18F]4, with and without rimonabant blocking
T1 construct: from tissue
T1 sequence (P47746 whole entry): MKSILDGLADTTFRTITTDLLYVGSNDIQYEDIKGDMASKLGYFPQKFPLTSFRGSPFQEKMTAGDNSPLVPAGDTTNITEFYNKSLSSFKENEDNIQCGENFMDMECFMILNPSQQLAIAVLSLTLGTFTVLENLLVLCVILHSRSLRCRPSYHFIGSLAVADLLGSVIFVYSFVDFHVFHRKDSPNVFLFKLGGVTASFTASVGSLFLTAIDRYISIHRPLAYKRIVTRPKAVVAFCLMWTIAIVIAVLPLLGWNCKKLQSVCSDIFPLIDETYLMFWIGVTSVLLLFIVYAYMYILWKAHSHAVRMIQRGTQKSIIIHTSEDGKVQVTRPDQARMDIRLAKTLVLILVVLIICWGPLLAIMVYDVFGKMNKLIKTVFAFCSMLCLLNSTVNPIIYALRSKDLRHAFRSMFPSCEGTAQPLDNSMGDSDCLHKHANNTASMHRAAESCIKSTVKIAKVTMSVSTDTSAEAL
Method: Dynamic PET scans were performed for 5 month old mice with an Inveon Multimodality PET/CT scanner (Siemens Medical Solutions USA, Knoxville, Tennessee). Mice were anesthetized with 2.5% isoflurane/oxygen gas, and body temperature was maintained with a heating pad and a bubble-wrap cover. CT transmission scans were performed to correct for attenuation. PET scans were initiated in parallel with an intravenous (iv) bolus injection of [^18F]4 to the mouse tail vein (4–5 month old, n = 6, 2 females; injected radioactivity 4.0 ± 0.4 MBq; injected mass 56 ± 25 ng, 1.7 ± 0.7 μg/kg).
Dynamic emission scans were acquired for 120 min in 3D list mode, with an energy window of 350–650 keV. Scanning times were 120 min (54 frames 30 × 10 s, 15 × 60 s, 4 × 300 s, 2 × 600 s, 3 × 1200 s). The list mode data were stored in 3D sinograms. Data were reconstructed with OSEM3D/MAP software (2 OSEM3D iterations and 18 MAP iterations). The PET/CT images were preprocessed in Matlab R2017a (The MathWorks, Natick, Massachusetts) with an in-house semiautomated pipeline for preclinical images that uses SPM12 (Wellcome Department of Cognitive Neurology, London, UK) preprocessing functionalities and analysis routines. Images were first cropped to a bounding box containing the heads, and individual PET images were coregistered through a rigid-body transformation to their corresponding CT scan. Subjects were spatially normalized through a two-step registration (a rigid followed by an affine transformation) of each subject’s CT to a template CT that was previously constructed as an average of several subjects and was aligned with an atlas T2-weighted MRI template. The combination of transformations was then applied to the PET images, which were also resampled to a voxel size of 0.2 × 0.2 × 0.2 mm^3 (trilinear interpolation), matching the anatomical atlas dimensions.
Volume of interest (VOI) analysis of the whole brain, neocortex, and hippocampus was performed on each subject by averaging the signal inside a slightly modified version of the Ma et al.[40] atlas delineated VOIs, and data were obtained as standardized uptake values (SUVs). SUVs were calculated as follows: SUV = tissue activity concentration (Bq/mL)/(injected dose (Bq)/body weight (g)); it was assumed that 1 mL of tissue equals 1 g. Tissue activity and dose were decay corrected to the same time point.
(§1) The specificity of [^18F]4 on mouse cerebral CB1Rs was examined in a 120 min in vivo study, and then, the same mice were used for ex vivo biodistribution and brain autoradiography studies. […] Control mice (n = 3, 1 female) were the given vehicle (90 μL, 10% EtOH in Kleptose β-cyclodextrin). […] Mice were sacrificed 120 min after iv injection of [^18F]4, and the ^18F-radioactivity distribution differences between pretreated and control mice were examined with in vivo PET imaging, ex vivo autoradiography, and 2480 Wizard Gamma Counter, and the data were analyzed as described in the previous sections.

[3] = biological target: T1, mouse cerebral CB1Rs; assay: Ex vivo brain autoradiography with [^18F]4, region-to-thalamus ratios; assay type: in vivo; settings: 120 min post injection
Method: For autoradiography, brains were further frozen and cut into 20 μm coronal cryosections for digital autoradiography, and the slices were exposed on an imaging plate (BAS-TR2025, Fuji Photo Film Co.) for approximately 2 half-lives and scanned with a Fuji BAS5000 phosphorimager (FUJIFILM Life Science, Stamford, Connecticut). Digital autoradiographic images were analyzed for count densities with the Aida 4 program (Raytest Isotopenmessgeräte GmbH, Straubenhardt, Germany). For brain slices, regions of interest (ROIs) were drawn over the parietotemporal cortex, striatum, frontal cortex, hippocampus, cerebellar gray matter, and thalamus. The autoradiography was quantified as ratios of the different ROIs relative to the thalamus, which was used as the reference region.
as §1

[4] = Ex vivo biodistribution with [^18F]4; assay type: in vivo, mouse
Method: All in vivo animals (n = 6, 2 females) and additional 2 month old mice (n = 11, males, injected radioactivity 7.0 ± 3.0 MBq; injected mass 160 ± 60 ng, 6.2 ± 2.6 μg/kg) were used for ex vivo studies to examine the biodistribution and metabolism of [^18F]4. Thus, the injected dose and injected mass to all the animals used (n = 17) were 5.9 ± 2.8 MBq and 120 ± 70 ng, 4.6 ± 3.0 μg/kg, respectively. After iv injection of [^18F]4, mice were sacrificed in deep anesthesia of 4.0% isoflurane with cardiac puncture at 30 (n = 4), 60 (n = 2), and 120 min (in vivo animals, n = 6 and 2 month old mice n = 5). Organs were immediately dissected, weighed, and measured for ^18F-radioactivity in a 2480 Wizard Gamma Counter (Wallac PerkinElmer, Turku, Finland).
as §1

[5] = Radiometabolite analysis with [^18F]4 in plasma and cortex; assay type: in vivo, mouse; settings: 120 min p.i., n = 5
Method: The 2 month old animals (n = 11, used only for ex vivo studies) were used for metabolite analysis. Plasma and brain samples were collected at 30 (n = 4), 60 (n = 2), and 120 min (n = 5) p.i. Plasma samples were treated with MeCN and centrifuged to remove the proteins from the solution. Brain tissue samples were treated with the 40/60 (v/v) 1% TFA (aq)/MeCN solution and then centrifuged. The supernatants were applied to HPTLC silica gel 60 RP-18 plates (Art. 1.05914.0001, Merck, Darmstadt, Germany), and the plates were developed in 40/60 (v/v) 1% TFA (aq)/ MeCN. After drying, the TLC plates were exposed to an imaging plate for approximately 4 h and the imaging plate was scanned with a Fuji Analyzer BAS5000. The amount of [^18F]4 and its radioactive metabolites were analyzed with the Aida 4 program, and the curves were fitted with GraphPad Prism 6.0 (GraphPad Software, San Diego, California) using a double exponential decay equation.

[6] = Ex vivo biodistribution with [^18F]FMPEP-d2; assay type: in vivo, mouse
Method: After iv injection of [^18F]FMPEP-d2 to the mouse tail vein, the mice were sacrificed at the following time points: 30 min (3–4 month old, n = 3, males; injected radioactivity 1.3 ± 0.3 MBq; injected mass 1.5 ± 0.5 ng), 60 min (3–4 months old, n = 4, males; injected radioactivity 1.2 ± 0.8 MBq; injected mass 1.3 ± 1.0 ng), and 120 min (1.5–6 month old, n = 12, 5 females; injected radioactivity 2.6 ± 0.8 MBq; injected mass 3.1 ± 1.1 ng). Mice were sacrificed in deep anesthesia of 4.0% isoflurane with cardiac puncture. Organs were operated in the similar manner as in the biodistribution study with [^18F]4.

[7] = parameters: method as in PMID 32374481; settings: 10% ethanolic solution, radiolytic decomposition; cited from earlier work
[8] = test system: CB1R; parameters: method as in PMID 29909177; settings: mice, cited from earlier work
[9] = test system: CB1R; settings: cited from earlier work
[10] = parameters: method as in PMID 29909177; settings: 180 min p.i.; cited from earlier work
[11] = test system: CB1R; parameters: method as in doi:10.1016/B978-0-12-417041-4.00002-3; settings: cited from earlier work
[12] = test system: CB1R; parameters: method as in PMID 22699528; settings: cited from earlier work
[13] = 2 mg/kg rimonabant iv 10 min before tracer, 120 min after injection

Reduction of binding by rimonabant pretreatment, hippocampus [2, 13]: 62%
Reduction of binding by rimonabant pretreatment, neocortex [2, 13]: 59%
Reduction of binding by rimonabant pretreatment, whole brain [2, 13]: 58%
SUV at 120 min p.i. (after washout) ([2]; wild-type mice, 120 min p.i.): 1.3
Peak standardized uptake value (SUV), hippocampus ([2]; wild-type mice, baseline): 2.14
Peak standardized uptake value (SUV), neocortex ([2]; wild-type mice, baseline): 1.80
Peak standardized uptake value (SUV), whole brain ([2]; wild-type mice, baseline): 1.92
Time of maximum tracer uptake after injection ([2]; wild-type mice, brain PET): 30 min
Region-to-thalamus ratios in mice pretreated with rimonabant ([3]; 2 mg/kg rimonabant pretreatment): ~1
Ratio cortex and cerebellar gray matter to thalamus ([3]; without blocking): 3.7
Ratio frontal cortex to thalamus ([3]; without blocking): 2.5
Ratio globus pallidus to thalamus ([3]; without blocking): 4.9
Ratio parietotemporal cortex to thalamus ([3]; without blocking): 2.3
Ratio striatum to thalamus ([3]; without blocking): 2.8
Ratio whole hippocampus to thalamus ([3]; without blocking): 2.6
Cortex uptake ([4]; 30 min p.i.): 11.5 ± 3.7 %ID/g
Liver uptake ([4]; 30 min p.i.): 12.1 ± 0.7 %ID/g
Whole brain uptake ([4]; 30 min p.i.): 9.8 ± 3.2 %ID/g
Bone uptake (skull bone, parietal bone) ([4]; 120 min p.i.): 0.4 ± 0.1 %ID/g
Cortex uptake ([4]; 120 min p.i.): 5.1 ± 1.17 % ID/g
Liver uptake ([4]; 120 min p.i.): 8.2 ± 1.6 %ID/g
Whole brain uptake ([4]; 120 min p.i.): 4.9 ± 0.9 %ID/g
Cortex uptake in rimonabant treated mice ([4]; 120 min p.i., 2 mg/kg rimonabant pretreatment): 1.8 ± 0.2 %ID/g
Residual tracer in plasma, of the total ^18F-radioactivity [5]: approximately 21.3 ± 3.5%
Residual tracer in the cortex, of the total ^18F-radioactivity [5]: 75.0 ± 4.3%
SMILES: C[C@@H](N[C@@H]1C[C@H](c2cccc([18F])c2)N(c2ccc(C(F)(F)F)cc2)C1=O)c1ccccc1 [[^18F]4, (3R,5R)-5-(3-[^18F]fluorophenyl)-3-(((R)-1-phenylethyl)amino)-1-(4-(trifluoromethyl)phenyl)pyrrolidin-2-one]
Stability of the formulated tracer after EOS [1]: no significant decomposition was observed
Washout ([2]; wild-type mice): washout phase began immediately after the peak uptake

Whole brain ^18F-radioactivity uptake ([6]; 30 min p.i., healthy mice): 5.6 ± 1.3 %ID/g
Skull bone (parietal bone) radioactivity uptake ([6]; 120 min p.i., healthy mice): 2.7 ± 0.5 %ID/g
Defluorination compared to [^18F]4 ([6]; at 120 min, from skull bone uptake): over 6 fold
SMILES: C[C@@H](N[C@@H]1C[C@H](c2cccc(OC[18F])c2)N(c2ccc(C(F)(F)F)cc2)C1=O)c1ccccc1 [[^18F]FMPEP-d2, (3R,5R)-5-(3-([^18F]fluoromethoxy)phenyl)-3-(((R)-1-phenylethyl)amino)-1-(4-(trifluoromethyl)phenyl)pyrrolidin-2-one]
Shelf life [7]: 120 min
Washout ([8]; up to 90 min p.i.): essentially no washout was observed
Time of maximum tracer uptake [8]: 30 min
Whole brain SUV [8]: 1.5
Washout ([9]; human studies): slow washout
Amount of residual tracer [10]: 86%
CB1R vs CB2R selectivity [11]: 3580
Kb ([11]; for CB1R, read-out: In vitro potency (Kb)): 0.187 nM

SMILES: Cc1ccc(OC(C)(C)C(=O)N[C@@H](C)[C@@H](Cc2ccc(OCC[18F])cc2)c2cccc(C#N)c2)nc1 [[^18F]MK-9470, N-{(1S,2S)-2-(3-cyanophenyl)-3-[4-(2-[^18F]fluoroethoxy)phenyl]-1-methylpropyl}-2-methyl-2-[(5-methylpyridin-2-yl)oxy]propanamide]
Time of maximum tracer uptake post injection ([12]; rat): 300 min
Washout ([12]; rats, even after 600 min): no washout was observed
Washout ([9]; human, even after 6 h): no washout was observed
